For this assay, the target named is protein A (a kinase). The assay is described as follows: Inhibition of protein A kinase activity (33P-ATP peptide phosphorylation, filter, scintillation counting). Type of assay: biochemical. The settings on record: for IC50: Table 2, 10 μM [gamma-33P]-ATP, 10 μM peptide substrate, 40 minutes at room temperature; for pIC50 (experimental): Table 3, given with negative sign. The method, then: The hit compound derivatives synthesized as real compounds through Example 3 were evaluated for ability to inhibit the activity of protein A (a kinase).
Specifically, […] of protein A was incubated along with 8 mM MOPS (pH 7.0), 0.2 mM EDTA, 10 mM magnesium acetate, 10 μM [gamma-33P]-ATP, and 10 μM […], which is a phosphorylation target peptide. After incubation at room temperature for 40 minutes, the reaction was terminated by adding phosphoric acid to a final concentration of 0.5%. The reaction mixture was spotted onto a filter, then washed four times with 0.425% phosphoric acid for 4 minutes each. After washing once with methanol, the sample was dried and measured for radioactivity (scintillation counting) to assess phosphorylation (i.e., […](p)EDEEE peptide detection).

In turn, `C#CC(=O)Nc1cccc(-c2cc(NC(=O)c3cc4nccnc4s3)[nH]n2)c1` [Compound D0101] had a 50% inhibitory concentration (IC50) of 0.013 µM and a pIC50 (experimental) of 7.89.
The like results for `C#CC(=O)Nc1cccc(-c2cc(NC(=O)c3ccc4nonc4c3)[nH]n2)c1` [Compound D0054] were, in that order, 0.026 µM and 7.58.
`C#CC(=O)Nc1cccc(-c2cc(NC(=O)c3cc4ncc(O)nc4s3)[nH]n2)c1` [Compound D0137]: half-maximal inhibition (IC50) required 0.04 µM and the pIC50 (experimental) was found to be 7.4.
The matching figures for `O=C(Nc1cc(-c2cccc(NS(=O)(=O)N3CCOCC3)c2)n[nH]1)c1cc2nccnc2s1` [Compound D0025]: 0.062 µM and 7.21.
The like results for `C#CC(=O)Nc1cccc(-c2cc(NC(=O)c3cc4ccc(O)cc4o3)[nH]n2)c1` [Compound D0135] were, in that order, 0.063 µM and 7.2.
As to `CC#CC(=O)Nc1cccc(-c2cc(NC(=O)c3cc4c(s3)CCNC4)[nH]n2)c1` [Compound D1010], it took 0.031 µM to reach half-maximal inhibition (IC50) and the pIC50 (experimental) stood at 7.51.
Consider `C#CC(=O)Nc1cccc(-c2cc(NC(=O)c3cc4ncc(C(N)=O)nc4s3)[nH]n2)c1` [DM010], for which the IC50 stood at 0.01 µM and the pIC50 (experimental) is 8.
The matching figures for `CC#CC(=O)Nc1cccc(-c2cc(NC(=O)c3cc4cc(OC)ccc4o3)[nH]n2)c1` [Compound D0069]: 0.03 µM and 7.52.
The matching figures for `C#CC(=O)Nc1cccc(-c2cc(NC(=O)c3cc4ncc(C(=O)O)nc4s3)[nH]n2)c1` [DM009]: 0.007 µM and 8.15.
The matching figures for `C#CC(=O)Nc1cccc(-c2cc(NC(=O)c3cc4c(s3)CCOC4)[nH]n2)c1` [Compound D0157]: 0.004 µM and 8.4.
On to `CC#CC(=O)Nc1cccc(-c2cc(NC(=O)c3cc4c(s3)CC(=O)NC4)[nH]n2)c1` [Compound D1011], for which the half-maximal inhibitory concentration (IC50) stood at 0.008 µM and the pIC50 (experimental) came out at 8.1.
The compound `C#CC(=O)Nc1cccc(-c2cc(NC(=O)c3cc4ccc(O)cc4o3)[nH]n2)c1` [Compound D0139] gave a half-maximal inhibitory concentration (IC50) of 0.022 µM and a pIC50 (experimental) of 7.66.
The like results for `O=C(Nc1cc(-c2cccc(NS(=O)(=O)N3CCOCC3)c2)n[nH]1)c1cccc2ncsc12` [Compound D0083] were, in that order, 0.129 µM and 6.89.
The like results for `CC#CC(=O)Nc1cccc(-c2cc(NC(=O)c3cc4c(s3)CCOC4)[nH]n2)c1` [Compound D1008] were, in that order, 0.019 µM and 7.72.
Turning to `CC(C)(C)C(=O)Nc1cccc(-c2cc(NC(=O)c3nc4cccnc4s3)[nH]n2)c1` [Compound D0065], inhibition was half-maximal at 0.119 µM (IC50) and the pIC50 (experimental) amounted to 6.92.

These data come from patent publication US20250299772A1, “METHOD FOR GENERATION OF CHEMICAL DERIVATIVES AGAINST TARGET PROTEIN TO BUILD AI DRUG PLATFORM” (SYNTEKABIO, INC., priority 2024, published 2025).
